This test deals with T1, hrCXCR2 (Homo sapiens, UniProt P25025).
T1 construct: expressed in transfected cells; host or cells: HEK 293 cells (ECACC No. 85120602), membranes of the highest expressing clone
T1 sequence (P25025 1-360): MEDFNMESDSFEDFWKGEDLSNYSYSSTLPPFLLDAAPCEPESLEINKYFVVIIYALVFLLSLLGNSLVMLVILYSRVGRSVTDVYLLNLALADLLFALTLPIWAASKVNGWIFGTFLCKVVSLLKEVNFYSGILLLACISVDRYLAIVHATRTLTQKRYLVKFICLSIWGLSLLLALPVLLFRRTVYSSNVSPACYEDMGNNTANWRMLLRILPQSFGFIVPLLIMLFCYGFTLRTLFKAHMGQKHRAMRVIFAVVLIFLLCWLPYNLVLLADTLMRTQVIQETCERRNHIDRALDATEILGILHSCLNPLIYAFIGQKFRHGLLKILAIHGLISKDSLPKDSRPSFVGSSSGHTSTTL
Briefly: Ligand binding assay, [125I]IL-8 displacement from membranes of HEK 293 cells expressing hrCXCR2. The settings on record: [125I]IL-8 (~50 pM), HEK 293 hrCXCR2 membranes, 1.5 hours at room temperature. The source says: [^125I]IL-8 (human, recombinant) was purchased from Amersham, U.K. with a specific activity of 2,000 Ci/mmol. All other chemicals were of analytical grade. High levels of hrCXCR2 were expressed in HEK 293 cells (human embryo kidney 293 cells ECACC No. 85120602) (Lee et al. (1992) J. Biol. Chem. 267 pp16283-16291). hrCXCR2 cDNA was amplified and cloned from human neutrophil mRNA. The DNA was cloned into PCRScript (Stratagene) and clones were identified using DNA. The coding sequence was sub-cloned into the eukauyotic expression vector RcCMV (Invitrogen). Plasmid DNA was prepared using Quiagen Megaprep 2500 and transfected into HEK 293 cells using Lipofectamine reagent (Gibco BRL). Cells of the highest expressing clone were harvested in phosphate-buffered saline containing 0.2% (w/v) ethylenediaminetetraacetic acid (EDTA) and centrifuged (200 g, 5 min.). The cell pellet was resuspended in ice cold homogenisation buffer [10 mM HEPES (pH 7.4), 1 mM dithiothreitol, 1 mM EDTA and a panel of protease inhibitors (1 mM phenyl methyl sulphonyl fluoride, 2 μg/ml soybean trypsin inhibitor, 3 mM benzamidine, 0.5 μg/ml leupeptin and 100 μg/ml bacitracin)] and the cells left to swell for 10 minutes. The cell preparation was disrupted using a hand held glass mortar/PTFE pestle homogeniser and cell membranes harvested by centrifugation (45 minutes, 100,000 g, 4° C.). The membrane preparation was stored at −70° C. in homogenisation buffer supplemented with Tyrode's salt solution (137 mM NaCl, 2.7 mM KCl, 0.4 mM NaH2PO4), 0.1% (w/v) gelatin and 10% (v/v) glycerol.
All assays were performed in a 96-well MultiScreen 0.45 μm filtration plates (Millipore, U.K.). Each assay contained ˜50 pM [^125I]IL-8 and membranes (equivalent to ˜200,000 cells) in assay buffer [Tyrode's salt solution supplemented with 10 mM HEPES (pH 7.4), 1.8 mM CaCl2, 1 mM MgCl2, 0.125 mg/ml bacitracin and 0.1% (w/v) gelatin]. […] The backing plate was removed from the MultiScreen plate assembly, the filters dried at room temperature, punched out and then counted on a Cobra γ-counter.
`C[C@H](CO)Nc1cc(O)nc(SCc2cccc(Cl)c2)n1` [Example 3, 2-[(3-Chlorobenzyl)thio]-6-{[(1R)-2-hydroxy-1-methylethyl]amino}-4-pyrimidinol] showed an IC50 of 794 nM.
The value for `C[C@H](CO)Nc1nc(SCc2cccc(F)c2)nc(O)c1F` [Example 33, 2-[(3-fluorobenzyl)thio]-5-fluoro-6-{[(1R)-2-hydroxy-1-methylethyl]amino}pyrimidin-4-ol] was 31.6 nM; that for `C[C@H](CO)Nc1nc(SCc2cccc(F)c2F)nc(O)c1SCc1ncon1` [Example 26, 2-[[(2,3-Difluorophenyl)methyl]thio]-6-[[(1R)-2-hydroxy-1-methylethyl]amino]-5-[(1,2,4-oxadiazol-3-ylmethyl)thio]-4-pyrimidinol] was 100 nM.

Source of the values: patent US7482355B2, “Pyrimidine derivatives as modulators of chemokine receptor activity” (AstraZeneca AB, priority 2002, dated 2009).
